According to ChEMBL document CHEMBL5614367, “Hydroxamic acid hybrids: Histone deacetylase inhibitors with anticancer therapeutic potency” (Eur J Med Chem, 2023):
Each block holds one compound with its values, some of them ahead of it.

Columns and labels:
K562 = assay: Antiproliferative activity against human K562 cells measured after 72 hrs by CCK-8 assay; type: functional, cell-based; settings: K562, 72 h
U-266 = assay: Antiproliferative activity against human U-266 cells measured after 72 hrs by CCK-8 assay; type: functional, cell-based; settings: U-266, 72 h, pooled result: one value given for 9 cell lines, strains, targets or settings
LNCaP C4-2 = assay: Antiproliferative activity against human C4-2 cells assessed as inhibition of cell growth measured after 72 hrs by SRB assay; type: functional, cell-based; settings: LNCaP C4-2, 72 h
KYSE-510 = assay: Antiproliferative activity against human KYSE-510 cells assessed as inhibition of cell growth measured after 72 hrs by CCK-8 assay; type: functional, cell-based; settings: KYSE-510, 72 h
KYSE-450 [1] = assay: Antiproliferative activity against human KYSE-450 cells assessed as inhibition of cell growth measured after 72 hrs by CCK-8 assay; type: functional, cell-based; settings: KYSE-450, 72 h
PC-3 = assay: Antiproliferative activity against human PC-3 cells assessed as inhibition of cell growth measured after 72 hrs by SRB assay; type: functional, cell-based; settings: PC-3, 72 h
LAPC4 = assay: Antiproliferative activity against human LAPC4 cells assessed as inhibition of cell growth measured after 72 hrs by SRB assay; type: functional, cell-based; settings: LAPC4, 72 h
DU-145 = assay: Antiproliferative activity against human DU-145 cells assessed as inhibition of cell growth measured after 72 hrs by SRB assay; type: functional, cell-based; settings: DU-145, 72 h
HPAC = assay: Antiproliferative activity against human HPAC cells assessed as inhibition of cell growth measured after 72 hrs by MTT assay; type: functional, cell-based
KYSE-450 [2] = assay: Antitumor activity against human KYSE-450 cells xenografted in male C57BL/6 nude mouse assessed as reduction in tumor growth at 200 mg/kg, po administered for 5 days followed by 2 off schedule and measured every third day for 31 days relative to control; type: functional; parameters: scale not given: the % may be the effect or the level left; settings: time 31 day
A549 = assay: Antitumor activity against human A549 cells xenografted in assessed as reduction in tumor growth at 50 mg/kg, po administered via oral gavage 5 days on/2 days off dosing and measured on day 10,25 and 31 relative to control; type: functional; parameters: scale not given: the % may be the effect or the level left; settings: time 31 day
BXPC-3 [3] = assay: Antiproliferative activity against human BXPC-3 cells assessed as inhibition of cell growth measured after 72 hrs by MTT assay; type: functional, cell-based; settings: BXPC-3, 72 h
PANC-1 = assay: Antiproliferative activity against human PANC-1 cells assessed as inhibition of cell growth measured after 72 hrs by MTT assay; type: functional, cell-based; settings: PANC-1, 72 h
ASPC1 = assay: Antiproliferative activity against human ASPC1 cells assessed as inhibition of cell growth measured after 72 hrs by MTT assay; type: functional, cell-based; settings: ASPC1, 72 h
KYSE-30 = assay: Antiproliferative activity against human KYSE-30 cells assessed as inhibition of cell growth measured after 72 hrs by CCK-8 assay; type: functional, cell-based; settings: KYSE-30, 72 h
LNCaP C4-2B = assay: Antiproliferative activity against human LNCaP C4-2B cells assessed as inhibition of cell growth measured after 72 hrs by SRB assay; type: functional, cell-based
[4] = Antitumor activity against human Castration-resistant LuCaP 35CR cells xenografted in male CB17 SCID mouse assessed as inhibition of tumor growth at 100 mg/kg, po administered via oral gavage measured after 19 days relative to control; type: functional; settings: 456 h, time 19 day
BXPC-3 [5] = assay: Antitumor activity against human BXPC-3 cells xenografted in female BALB/c nude mouse assessed as tumor inhibition rate by measuring T/C ratio at 10 mg/kg, ip administered for 20 days and measured every 1 to 3 days relative to control; type: functional; settings: time 20 day
MIA PaCa-2 = assay: Antiproliferative activity against human MIA PaCa-2 cells assessed as inhibition of cell growth measured after 72 hrs by MTT assay; type: functional, cell-based; settings: MIA PaCa-2, 72 h
LNCaP = assay: Antiproliferative activity against human LNCaP cells assessed as inhibition of cell growth measured after 72 hrs by SRB assay; type: functional, cell-based
KYSE-150 cell line = assay: Antiproliferative activity against human KYSE-150 cells assessed as inhibition of cell growth measured after 72 hrs by CCK-8 assay; type: functional, cell-based; settings: KYSE-150, 72 h
CFPAC-1 = assay: Antiproliferative activity against human CFPAC-1 cells assessed as inhibition of cell growth measured after 72 hrs by MTT assay; type: functional, cell-based; settings: CFPAC-1, 72 h
CWR22R = assay: Antiproliferative activity against human 22Rv1 cells assessed as inhibition of cell growth measured after 72 hrs by SRB assay; type: functional, cell-based; settings: 22Rv1, 72 h

- IC50 (K562): 1080 nM
SMILES: O=C(NO)c1ccc(N2CCN(C(=O)c3cc(-c4ccc(-c5ccccc5)cc4)nc4ccccc34)CC2)cc1
- IC50 (U-266): 1080 nM

- IC50 (LNCaP C4-2): 2 nM
- IC50 (PC-3): 2 nM
- IC50 (DU-145): 2 nM
- IC50 (BXPC-3 [3]): 2 nM
- IC50 (PANC-1): 2 nM
- IC50 (ASPC1): 2 nM
- IC50 (LNCaP C4-2B): 2 nM
- IC50 (MIA PaCa-2): 2 nM
- IC50 (LNCaP): 2 nM
SMILES: COc1ccc(-c2nc(N3CCOCC3)c3sc(CN(C)c4ncc(C(=O)NO)cn4)cc3n2)cn1 [FIMEPINOSTAT]
- IC50 (KYSE-510): 2 nM
- IC50 (KYSE-450 [1]): 2 nM
- IC50 (LAPC4): 2 nM
- IC50 (HPAC): 2 nM
- Activity (KYSE-450 [2]): ~65%
- Activity (A549): ~80%
- IC50 (KYSE-30): 2 nM
- inhibition in vivo at 100 mg/kg [4]: ~60%
- T/C (BXPC-3 [5]): 52%
- IC50 (KYSE-150 cell line): 2 nM
- IC50 (CFPAC-1): 2 nM
- IC50 (CWR22R): 2 nM
